Reference: patent US10070651B2, “Synthesis and characterization of antimicrobial non-color forming silver-silica nanocomposite” (UNIVERSITY OF CENTRAL FLORIDA RESEARCH FOUNDATION, INC., priority 2015, dated 2018)

Experiments:
bacteria = test: Antimicrobial efficacy / bacterial viability assay, summary statements without named organism; format: cell-based; details: equivalent concentrations of silver
Protocol: Such an enhanced antimicrobial efficacy, for instance, may be attributed to a sustained release of silver, for example, either as a nanoparticle and/or its ionic form. By way of example, antimicrobial efficacy of the silica-silver nanocomposite particle was evaluated relative to that of the silver nanoparticle (AgNP) lacking the dielectric material encapsulation and aqueous silver nitrate (AgNO3) solutions, respectively, at equivalent concentrations of silver (if present). Note that, the silver nanoparticle and the silver nitrate, in this example, have been used as a positive growth control, while the silica nanoparticle (SiNP) lacking silver components, has been used as a negative growth control.
In order to gain a better understanding of the antimicrobial efficacy of each material, we carried out a colony forming unit study over two time points, 1 and 4 hours. 96 well plates were prepared and incubated as described for M IC studies, and 10 μL samples from wells containing the concentrations of antimicrobial agents were taken at each time point. […] MH2 agar plates labeled by material and time point were then spotted with five 10 μL drops from each well at each concentration, allowed to dry in the sterile conditions of a biosafety cabinet, and then incubated 12-14 hours before colonies were counted. […]

[1] = Color passivation study on coated tiles (thermal and UV treatments); format: physicochemical
Protocol: White tiles were purchased from Home Depot, and scrubbed with acetone and Kim wipes to remove any oils which would inhibit materials from adhering well. After scrubbing and allowing the tiles to dry, about 50 μL samples of each material were spread over an area approximately 3cm by 3cm, and allowed to dry under ambient conditions. A picture was taken, and then tiles were exposed to long and shortwave UV radiation for 5 minutes, and briefly heated using a butane torch, and photographed again to observe the change in color of each material.

O=[N+]([O-])[O-].[Ag+] [AgNO3, silver nitrate]
antimicrobial efficacy, relative ranking (bacteria): most effective antimicrobial form of silver | color of coated tile after thermal and UV treatments ([1]; UV radiation for 5 minutes and brief heating with butane torch): dark brown/black color | color of coated tile before thermal and UV treatments ([1]; white tiles, dried coating): do not show formation of color
